The record followed here is the supplement of paper PMC11208160.

The data set can be described thus: recombinant UMI read abundance after kanamycin selection (control-corrected) (log10(CPM+1)); higher = more efficient recombination; extreme values may be limits of the assay; sequences stand for … in AGTGCAGAGAAAATCGGCCAGTTTTCTCTGCCTGCAGTCCGCATGCCGTGGGACCCCTTGGGTTCTAACCTGTTGCCTAGATTTATGCAGCGGACTGCCTTTCTCCCAAAGTGATAAACCGG…AGGTTGGTTTCACT; site = the 11-nt donor. In outline:
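In Escherichia coli, a pool of donor and donor-binding-loop pairs, each with a 12-nt UMI, was tested for the IS621 bridge recombinase. Plating was on IPTG (0.07 mM) plus kanamycin, or without selection, in two replicates. Recombinant UMIs were amplified by PCR across the donor–target junction and sequenced, and counts were reported as log10(CPM+1) after averaging and control-derived scaling.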
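Also: IS621 bridge recombinase in Escherichia coli cells against a fixed T5 target plasmid.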

For “CAGCTCACATGGACCGGTTTTCCCGGTAATCCGTATTTGAT (site TAGCTCACTAT)”, the “recombinant UMI read abundance (log10)” value stood at 0.404.
Under “CAGCTCGCATGGACCGGTTTTCCCGGTAATCCGTATTTGAC (site CAGCTCGCTGT)” stands 2.55; under “CAGGAAACATGGACCGGTTTTCCCGGTAATCCGTATTTGCA (site CAGGAAACTTG)”, 1.79; under “CAGGAAACATGGACCGGTTTTCCCGGTAATCCGTATTTGCA (site CCGGAAACTTG)”, 0.
Regarding “CAGGAAACATGGACCGGTTTTCCCGGTAATCCGTATTTGCA (site CGGGAAACTTG)”, the “recombinant UMI read abundance (log10)” value is 0.
For the sequence “CAGGAAACATGGACCGGTTTTCCCGGTAATCCGTATTTGCA (site CTGGAAACTTG)”, the “recombinant UMI read abundance (log10)” value was determined as 2.49.
For the sequence “CAGGAATCATGGACCGGTTTTCCCGGTAATCCGTATTTGCA (site CAGGAATCTTG)”, the “recombinant UMI read abundance (log10)” value came out at 3.17.
In the case of “CAGGAATCATGGACCGGTTTTCCCGGTAATCCGTATTTGCG (site AAGGAATCTCG)” it was 1.51; in that of “CAGGAATCATGGACCGGTTTTCCCGGTAATCCGTATTTGCG (site CAGGAATCTCG)”, 3.26; in that of “CAGGAATCATGGACCGGTTTTCCCGGTAATCCGTATTTGCG (site GAGGAATCTCG)”, 0.395.
Turning to “CAGGAATCATGGACCGGTTTTCCCGGTAATCCGTATTTGCG (site TAGGAATCTCG)”, the “recombinant UMI read abundance (log10)” value was 2.69.
In the case of “CAGGACTCATGGACCGGTTTTCCCGGTAATCCGTATTTGTT (site CAGGACTCTAA)” it was 2.96; in that of “CAGGCATCATGGACCGGTTTTCCCGGTAATCCGTATTTGTC (site CAGGCATCTGA)”, 2.76.
In the case of “CAGGCGTCATGGACCGGTTTTCCCGGTAATCCGTATTTGGA (site CAGGCGTCTTC)” it was 1.89.
In the case of “CAGGGCCCATGGACCGGTTTTCCCGGTAATCCGTATTTGTG (site CAGGGCCCTCA)”, the “recombinant UMI read abundance (log10)” value amounted to 0.282.
Regarding “CAGGGTGCATGGACCGGTTTTCCCGGTAATCCGTATTTGGT (site CAGGGTGCTAC)”, the “recombinant UMI read abundance (log10)” value is 1.49.
Consider “CAGTACACATGGACCGGTTTTCCCGGTAATCCGTATTTGCT (site CAGTACACTAG)”, for which the “recombinant UMI read abundance (log10)” value was 2.43.
For “CAGTCAACATGGACCGGTTTTCCCGGTAATCCGTATTTGTG (site CAGTCAACTCA)”, the “recombinant UMI read abundance (log10)” value was 0.0625.
As for “CAGTCGACATGGACCGGTTTTCCCGGTAATCCGTATTTGCG (site CAGTCGACTCA)”, the “recombinant UMI read abundance (log10)” value was 0.
In the case of “CAGTCGACATGGACCGGTTTTCCCGGTAATCCGTATTTGCG (site CAGTCGACTCC)”, the “recombinant UMI read abundance (log10)” value was determined as 0.
In the case of “CAGTCGACATGGACCGGTTTTCCCGGTAATCCGTATTTGCG (site CAGTCGACTCG)”, the “recombinant UMI read abundance (log10)” value stood at 0.869.
“CAGTCGACATGGACCGGTTTTCCCGGTAATCCGTATTTGCG (site CAGTCGACTCT)”: the “recombinant UMI read abundance (log10)” value worked out at 0.00924.
For “CAGTCGACATGGACCGGTTTTCCCGGTAATCCGTATTTGGC (site CAGTCGACTAC)”, the “recombinant UMI read abundance (log10)” value turned out to be 0.105.
In the case of “CAGTCGACATGGACCGGTTTTCCCGGTAATCCGTATTTGGC (site CAGTCGACTCC)”, the “recombinant UMI read abundance (log10)” value turned out to be 0.00601.
For the sequence “CAGTCGACATGGACCGGTTTTCCCGGTAATCCGTATTTGGC (site CAGTCGACTGC)”, the “recombinant UMI read abundance (log10)” value stood at 1.37.
For the sequence “CAGTCGACATGGACCGGTTTTCCCGGTAATCCGTATTTGGC (site CAGTCGACTTC)”, the “recombinant UMI read abundance (log10)” value amounted to 0.0416.
As to “CAGTCGCCATGGACCGGTTTTCCCGGTAATCCGTATTTGGG (site CAGTCGACTCC)”, the “recombinant UMI read abundance (log10)” value amounted to 0.0111.
In the case of “CAGTCGCCATGGACCGGTTTTCCCGGTAATCCGTATTTGGG (site CAGTCGCCTCC)” it was 0.0028.
As to “CAGTCGCCATGGACCGGTTTTCCCGGTAATCCGTATTTGGG (site CAGTCGGCTCC)”, the “recombinant UMI read abundance (log10)” value was 0.0208.
For the sequence “CAGTCGCCATGGACCGGTTTTCCCGGTAATCCGTATTTGGG (site CAGTCGTCTCC)”, the “recombinant UMI read abundance (log10)” value came to 0.
Under “CAGTCGGCATGGACCGGTTTTCCCGGTAATCCGTATTTGCT (site CAGTCGGCTAG)” stands 0.438.
Consider “CAGTGGACATGGACCGGTTTTCCCGGTAATCCGTATTTGTG (site CAGTGGACTCA)”, for which the “recombinant UMI read abundance (log10)” value stood at 1.57.
In the case of “CAGTTTACATGGACCGGTTTTCCCGGTAATCCGTATTTGCT (site CAGTTTACTAG)” it was 2.07; in that of “CAGTTTACATGGACCGGTTTTCCCGGTAATCCGTATTTGCT (site CCGTTTACTAG)”, 0.978.
Take “CAGTTTACATGGACCGGTTTTCCCGGTAATCCGTATTTGCT (site CGGTTTACTAG)”: the “recombinant UMI read abundance (log10)” value stood at 0.
Regarding “CAGTTTACATGGACCGGTTTTCCCGGTAATCCGTATTTGCT (site CTGTTTACTAG)”, the “recombinant UMI read abundance (log10)” value is 0.662.
In the case of “CATACACCATGGACCGGTTTTCCCGGTAATCCGTATTTGTA (site CATACACCTTA)”, the “recombinant UMI read abundance (log10)” value was 0.00749.
For “CATACAGCATGGACCGGTTTTCCCGGTAATCCGTATTTGTG (site CATACAGCTCA)”, the “recombinant UMI read abundance (log10)” value was 1.18.
In the case of “CATAGCGCATGGACCGGTTTTCCCGGTAATCCGTATTTGTC (site CATAGCGCTGA)” it was 2.99; in that of “CATAGTCCATGGACCGGTTTTCCCGGTAATCCGTATTTGAA (site CATAGTCCTTT)”, 0.981.
“CATCAGTCATGGACCGGTTTTCCCGGTAATCCGTATTTGGT (site CATCAGTCTAC)”: the “recombinant UMI read abundance (log10)” value worked out at 2.17.
As for “CATCCATCATGGACCGGTTTTCCCGGTAATCCGTATTTGGG (site CATCCATCTCC)”, the “recombinant UMI read abundance (log10)” value was 0.0148.
Turning to “CATCCCTCATGGACCGGTTTTCCCGGTAATCCGTATTTGTA (site CATCCCTCTTA)”, the “recombinant UMI read abundance (log10)” value turned out to be 3.33.
As to “CATCGTACATGGACCGGTTTTCCCGGTAATCCGTATTTGGT (site AGAGTGGCTTA)”, the “recombinant UMI read abundance (log10)” value was 0.00765.
For the sequence “CATCTGTCATGGACCGGTTTTCCCGGTAATCCGTATTTGGG (site CATCTGTCTCC)”, the “recombinant UMI read abundance (log10)” value was determined as 0.559.
With “CATGACTCATGGACCGGTTTTCCCGGTAATCCGTATTTGTC (site CATGACTCTGA)”, the “recombinant UMI read abundance (log10)” value was 1.71.
“CATGCACCATGGACCGGTTTTCCCGGTAATCCGTATTTGAC (site CATGCACCTGT)”: the “recombinant UMI read abundance (log10)” value was 0.
As to “CATGCAGCATGGACCGGTTTTCCCGGTAATCCGTATTTGCT (site CAAGCAGCTAG)”, the “recombinant UMI read abundance (log10)” value is 0.856.
Regarding “CATGCAGCATGGACCGGTTTTCCCGGTAATCCGTATTTGCT (site CACGCAGCTAG)”, the “recombinant UMI read abundance (log10)” value came to 1.29.
Turning to “CATGCAGCATGGACCGGTTTTCCCGGTAATCCGTATTTGCT (site CAGGCAGCTAG)”, the “recombinant UMI read abundance (log10)” value stood at 0.00853.
As to “CATGCAGCATGGACCGGTTTTCCCGGTAATCCGTATTTGCT (site CATGCAGCTAG)”, the “recombinant UMI read abundance (log10)” value amounted to 1.97.
Under “CATGCATCATGGACCGGTTTTCCCGGTAATCCGTATTTGCT (site CATGCATCTAG)” stands 1.49; under “CATGGATCATGGACCGGTTTTCCCGGTAATCCGTATTTGGA (site CATGGATCTTC)”, 2.32; under “CATGTGACATGGACCGGTTTTCCCGGTAATCCGTATTTGAT (site CATGTGACTAT)”, 2.03.
With “CATTATCCATGGACCGGTTTTCCCGGTAATCCGTATTTGCT (site AATTATCCTAG)”, the “recombinant UMI read abundance (log10)” value stood at 0.352.
In the case of “CATTATCCATGGACCGGTTTTCCCGGTAATCCGTATTTGCT (site CATTATCCTAG)” it was 1.59; in that of “CATTATCCATGGACCGGTTTTCCCGGTAATCCGTATTTGCT (site GATTATCCTAG)”, 0.
Turning to “CATTATCCATGGACCGGTTTTCCCGGTAATCCGTATTTGCT (site TATTATCCTAG)”, the “recombinant UMI read abundance (log10)” value amounted to 0.
Regarding “CATTCGCCATGGACCGGTTTTCCCGGTAATCCGTATTTGAA (site CATTCGCCTTT)”, the “recombinant UMI read abundance (log10)” value worked out at 0.0116.
On to “CATTCGTCATGGACCGGTTTTCCCGGTAATCCGTATTTGGC (site CATTCGTCTGC)”, for which the “recombinant UMI read abundance (log10)” value came out at 0.595.
Consider “CATTGAACATGGACCGGTTTTCCCGGTAATCCGTATTTGCC (site CATTGAACTGG)”, for which the “recombinant UMI read abundance (log10)” value turned out to be 0.
Regarding “CATTGGACATGGACCGGTTTTCCCGGTAATCCGTATTTGAC (site AATTGGACTGT)”, the “recombinant UMI read abundance (log10)” value was found to be 0.565.
Regarding “CATTGGACATGGACCGGTTTTCCCGGTAATCCGTATTTGAC (site CATTGGACTGT)”, the “recombinant UMI read abundance (log10)” value was 1.96.
In the case of “CATTGGACATGGACCGGTTTTCCCGGTAATCCGTATTTGAC (site GATTGGACTGT)” it was 0.
As to “CATTGGACATGGACCGGTTTTCCCGGTAATCCGTATTTGAC (site TATTGGACTGT)”, the “recombinant UMI read abundance (log10)” value worked out at 0.
As for “CCAAAACCATGGACCGGTTTTCCCGGTAATCCGTATTTGAG (site CCAAAACCTCT)”, the “recombinant UMI read abundance (log10)” value was 0.
Under “CCAACTTCATGGACCGGTTTTCCCGGTAATCCGTATTTGTA (site CCAACTTCTTA)” stands 0.301.
In the case of “CCAAGCGCATGGACCGGTTTTCCCGGTAATCCGTATTTGTA (site CCAAGCGCTTA)”, the “recombinant UMI read abundance (log10)” value is 1.3.
